Literature values as cited in patent publication US5420016A, “Test device and kit for detecting helicobacter pylori” (Serim Research Corporation, priority 1994, dated 1995).

Target: Urease from H. pylori (Helicobacter pylori, UniProt P69996)
Details: read-out: Michaelis constant (urea); substrate urea; from Dunn, et al., J. Biol. Chem., 265:9464-9 (1990)

Chain of Urease from H. pylori (P69996 whole entry): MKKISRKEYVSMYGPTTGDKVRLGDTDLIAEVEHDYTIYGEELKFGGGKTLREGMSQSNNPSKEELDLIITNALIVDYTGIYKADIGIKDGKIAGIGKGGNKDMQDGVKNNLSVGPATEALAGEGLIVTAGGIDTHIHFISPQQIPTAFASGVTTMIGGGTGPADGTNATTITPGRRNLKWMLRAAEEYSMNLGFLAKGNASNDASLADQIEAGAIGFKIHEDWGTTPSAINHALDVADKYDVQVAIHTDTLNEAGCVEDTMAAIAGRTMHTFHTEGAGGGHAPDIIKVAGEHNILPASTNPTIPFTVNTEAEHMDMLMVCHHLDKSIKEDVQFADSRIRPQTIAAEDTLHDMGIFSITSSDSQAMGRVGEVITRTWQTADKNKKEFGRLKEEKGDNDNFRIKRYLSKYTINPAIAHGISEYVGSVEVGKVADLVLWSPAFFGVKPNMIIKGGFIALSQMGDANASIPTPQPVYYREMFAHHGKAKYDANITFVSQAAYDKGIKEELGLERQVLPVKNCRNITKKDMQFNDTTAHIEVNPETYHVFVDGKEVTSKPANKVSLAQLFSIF
Chain of Urease from H. pylori (P14916 whole entry, further chain): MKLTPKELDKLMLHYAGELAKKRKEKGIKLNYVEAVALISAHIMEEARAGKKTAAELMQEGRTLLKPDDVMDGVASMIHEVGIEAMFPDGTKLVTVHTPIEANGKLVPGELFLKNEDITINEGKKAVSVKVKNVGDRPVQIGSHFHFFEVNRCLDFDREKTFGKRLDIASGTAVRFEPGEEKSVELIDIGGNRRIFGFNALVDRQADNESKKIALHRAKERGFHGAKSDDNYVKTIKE

For `NC(N)=O` [urea], the Km is listed as 300 µM.
